Test results from patent US9321849B2, “Uranium-chelating peptides and uses thereof” (priority 2003, dated 2016).
Read-outs that look alike come from different tables or passages of the source.

Columns and labels:
[1] = system: MLCKp peptide (calmodulin-binding domain of myosin light chain kinase); assay: Tryptophan fluorescence of the MLCKp ligand peptide in the presence of calmodulin; parameters: species or system rabbit; settings: 5 μM MLCKp
Protocol: The fluorescence spectra are recorded on a Cary Eclipse spectrometer (Varian, France) equipped with a thermostated cuvette holder. The excitation wavelength used is 280 nm with slot widths of 10 nm for excitation and of 2.5 nm for emission. The spectra are recorded between 300 nm and 450 nm in a cuvette with a 1 cm optical path.
In the presence of calcium, calmodulin can bind and activate a large diversity of targets. Among these, the MLCKp peptide, which has 17 residues and is derived from the calmodulin-binding domain of a rabbit muscle myosin light chain kinase (CALBIOCHEM), has the following sequence:
In a first series, a fluorescence spectrum for the tryptophan of the ligand, dissolved at a concentration of 5 μM in a 10 mM MES buffer, at pH 6.5, was recorded as described in example 1.
Excitation of the solution at 280 nm makes it possible to detect an emission at 350 nm, characteristic of a tryptophan exposed to the aqueous solvent.
This is compatible with a structure similar to that obtained in the case of calcium. […] The emission detected is then that of the metal (λ>450 nm) and no longer that of the tryptophan.

[2] = Competition between calcium and uranyl for calmodulin, Dynafit simulation; type: binding; settings: 8 μM calmodulin, 0.4 μM uranyl, calcium up to 8 mM
Protocol: (§1) The coordination of uranium (in uranyl form, 2.0 μM) by the native protein in 1 mM phosphate medium was also studied. The complexation of uranium with the protein is reflected by a drop in uranyl fluorescence intensity. The titration spectra are represented in FIG. 13. In another experiment, a 0.4 μM solution of uranyl nitrate in a 1.0 mM phosphate buffer (pH 7.0) was titrated with a solution of calmodulin up to a protein concentration of 8 μM. After the addition of 8 μM of calmodulin, calcium ions were added up to the concentration of 8 mM (FIG. 14). The values for the titration of uranyl by calmodulin were interpreted by simulating the experimental data with a system of equations corresponding to one, two, three or four independent sites for uranium (FIG. 16). The Dynafit software (Kuzmic, P. 1996, Anal. Biochem. 237, 260-273) was used for these simulations. […] The values for competition with the calcium ions were also interpreted with a system of suitable equations and the simulation of the experimental points with this system is given in FIG. 17. […] It is also considered, as a hypothesis, that each of these two sites is independent of the other. […]

[3] = TRLS titration of uranyl nitrate with calmodulin, Dynafit simulation; type: binding; settings: 0.4 μM uranyl nitrate, 1.0 mM phosphate buffer pH 7.0, two-site simulation
Protocol: as §1

calmodulin
increase in intensity of ligand tryptophan fluorescence ([1]; 10 mM MES pH 6.5, one equivalent of calmodulin, absence of metals): 25%
increase in intensity of ligand tryptophan fluorescence ([1]; one equivalent of calmodulin, 10 equivalents of calcium): 20%
ligand tryptophan fluorescence in the presence of uranyl ([1]; one equivalent of calmodulin, uranyl): complete extinction of the fluorescence
displacement of uranium by calcium [2]: just one of the two sites complexed with uranium is displaced by calcium
Kd ([3]; read-out: dissociation constant, uranyl, first of two high-affinity sites): 3300 ± 400 nM
Kd ([3]; read-out: dissociation constant, uranyl, second of two high-affinity sites): 720 ± 200 nM
